Assays:
[1] = system: PBMC (peripheral blood mononuclear cells); assay: two-way mixed lymphocyte reaction (MLR), immune suppression; assay type: cell-based; details: Homo sapiens, 144 h, allogeneic stimulation of PBMC, 6 days
Excerpt: Various in vitro assays can be used to measure effects of the inventive compounds to module immune activity and have antitumor activity using a variety of cellular types. For example, a mixed lymphocyte reaction (MLR) provides a valuable screening tool to determine biological activity of each inventive compound. In the MLR, PBMCs (peripheral blood mononuclear cells) are obtained by drawing whole blood from healthy volunteers in a heparinized container and diluted with an equal volume of hanks balanced salt solution (HBSS). This mixture is layered on a sucrose density gradient, such as a Ficoll-Hypaque® gradient (specific gravity 1.08), and centrifuged at 1000× g for 25 minutes at room temperature or cooler. PBMC are obtained from a band at a plasma-Ficoll interface, separated and washed at least twice in a saline solution, such as HBSS. Contaminating red cells are lysed, such as by ACK lysis for 10 rain at 37° C., and the PBMCs are washed twice in HBSS. The pellet of purified PBMCs is resuspended in complete medium, such as RPMI 1640 plus 20% human inactivated serum. Proliferative response of PBMC to allogeneic stimulation is determined in a two-way MLR performed in a 96-well microtiter plate. […] At the conclusion of the incubation tritiated thymidine is added (for example, 1 μCi/well of 40 to 60 Ci/mmole) and proliferation determined by liquid scintillation counting. […]

[2] = system: transformed cells (Ras 3T3) and normal 3T3 cells; assay: cytotoxicity in transformed and normal 3T3 cells; assay type: cell-based
Method: A similar experiment is shown in FIG. 9 for five inventive compounds (see Table 1 […] for chemical names) showing differential cytotoxicity for the same normal and transformed cells.
Each inventive compound is investigated for cytotoxicity to determine appropriate doses for biological activity assays and to prevent cytotoxic reactions in in vitro assays when characterizing activity. Cells (e.g., NIH-3T3, Ras transformed 3T3 cells, malignant melanoma LD2 cells, etc.) are added to microtiter plates and drug is added about two days after plating. Cell viability is determined using a fluorescent viability stain (e.g., 2',7'-bis-(2-carboroxyethyl)-5-(and -6)-carboxyfluorescein acetoxymethyl ester, BCECF excitation 488 nm and emission 525 nm) 24, 48 or 72 hours after addition of the drug.
This example illustrates a comparison of cytotoxicity determinations for CT1595 in transformed cells (Ras 3T3) and in normal 3T3 cells at drug doses of 1, 10 and 100 μM in in vitro cell culture conditions (FIG. 8). […] A similar experiment is shown in FIG. 9 for five inventive compounds (see Table 1 above for chemical names) showing differential cytotoxicity for the same normal and transformed cells.

SMILES: Cn1cnc2c1c(=O)n(CCCCC(=O)CCl)c(=O)n2C [CT1595, 1-(6-chloro-5-oxohexyl)-3,7-dimethylxanthine]
- IC50 [1]: < 10 µM
- differential cytotoxicity, transformed vs normal 3T3 cells ([2]; FIG. 8, 1, 10 and 100 μM): more cytotoxic for the cancer cell than the normal cell
- cytotoxic activity, normal and transformed 3T3 cells ([2]; FIG. 9, five compounds): significant cytotoxic activity
